Measured values: KR20080021588A, “메카노 성장 인자 펩티드 및 이들의 용도” (유씨엘 비즈니스 피엘씨, priority 2005, dated 2006)
Where no end group is shown, it is not given here.

Assays:
C2C12 근육 세포 [1] = assay: C2C12 cell proliferation assay (Alamar Blue); assay type: cell-based, mouse; settings: 2, 5, 50 and 100 ng/ml; 2000 cells/well; medium with IGF-I 2 ng/ml; 36 h; vs medium-only control
C2C12 근육 세포 [2] = assay: C2C12 cell proliferation assay (BrdU incorporation); assay type: cell-based, mouse; settings: 0.1, 1, 10 and 100 ng/ml; 500 cells/well; 24 h stimulation, 5 h BrdU
mdx 마우스의 근이영양성 근육 = assay: Tetanic force of dystrophic muscle after intramuscular injection in mdx mice; assay type: in vivo, mouse; settings: i.m. twice weekly for 3 weeks
경색된 양 심장 = assay: Cardioprotection after myocardial infarction in sheep (ejection fraction by echocardiography); assay type: in vivo; settings: intracoronary injection 15 min after infarction, day 6 vs day before procedure
래트 기관형적 해마 배양물 = assay: In vitro neuroprotection against TBH oxidative stress in organotypic hippocampal slices (PI staining); assay type: cell-based, Wistar rat; settings: 100 ng/ml
뇌 허혈의 게르빌루스쥐 모델 = assay: Neuroprotection in gerbil model of brain ischaemia (surviving CA1 neurons); assay type: in vivo, Mongolian gerbil; settings: 25 µg injection, 7 days after ischaemic insult
정상 두개안면 (교근) 초대 배양물 = assay: Myogenic progenitor (desmin-positive) cell proliferation, normal craniofacial muscle primary culture; assay type: cell-based, human; settings: normal craniofacial (masseter); peptide 10 ng/ml alone; untreated 49.8±2.4%
정상 하지 (사두근) 초대 배양물 = assay: Myogenic progenitor (desmin-positive) cell proliferation, normal limb muscle primary culture; assay type: cell-based, human; settings: normal limb (quadriceps); peptide 10 ng/ml alone; untreated 38.4±2.5%
[3] = system: 선천성 근이영양증 (CMD)에서 유래된 초대 배양물; assay: Myogenic progenitor (desmin-positive) cell proliferation, CMD muscle primary culture; assay type: cell-based, human; settings: peptide 10 ng/ml alone, untreated 10.4±1.7%
ALS 사지 = assay: Myogenic progenitor (desmin-positive) cell proliferation, ALS muscle primary culture; assay type: cell-based, human; settings: peptide 10 ng/ml alone, untreated 4.8±1.1%
FSHD 사지 = assay: Myogenic progenitor (desmin-positive) cell proliferation, FSHD muscle primary culture; assay type: cell-based, human; settings: peptide 10 ng/ml alone, untreated 11.7±1.3%
초대 인간 근육 세포 배양물 = assay: Creatine phosphokinase (CPK) assay of myogenic differentiation / myotube formation; assay type: cell-based, human; settings: peptide alone in differentiation medium, 48 h; IGF-I at 10 ng/ml
HSMM 세포 = assay: Human primary cell (HSMM) proliferation assay (BrdU incorporation); assay type: cell-based; settings: 48 h; A5 at doses up to 10 ng/ml (P < 0.1); IGF-I alone at any dose
단핵성 근육모세포 (수반 세포) = assay: Biological activity: induction of mononucleated myoblast replication (Alamar Blue); assay type: cell-based; design: key to biological activity score (scale 0 to 3): 0: 6시간에서 측정가능한 세포 수 증가 없음; 1: 4시간에서 유의한 세포 수 증가; 2시간에서 유의한 세포 수 증가; 3: 1시간에서 유의한 세포 수 증가; settings: cell number by Alamar Blue

## GSTFEEHK [DMGF]
C2C12 근육 세포 [1]
  induction of C2C12 cell proliferation (Alamar Blue fluorescence): 세포 증식을 유도하였다

## GSTFEEHK [펩티드 A8]
C2C12 근육 세포 [2]
  induction of C2C12 cell proliferation (BrdU incorporation): 세포 증식을 유도하였다

## GSTFEERK [펩티드 A2]
C2C12 근육 세포 [2]
  induction of C2C12 cell proliferation (BrdU incorporation): 세포 증식을 유도하였다

## IGF-I: IGF-I receptor binding domain encoded by exons 3 and 4, about 70 amino acids; from PeproTech or Sigma-Aldrich
Mdx 마우스의 근이영양성 근육
  increase in tetanic force of dystrophic muscle: ~5 %
경색된 양 심장
  effect on ejection fraction and percentage of viable myocardium after MI: 더욱 작은 효과
래트 기관형적 해마 배양물; TBH 3 h, CA1 region, 24 h
  protection against TBH-induced cell death: 72 %
래트 기관형적 해마 배양물; cell death assessed 24 h and 48 h after start
  time over which the neuroprotective effect was marked: ≤ 24 시간
뇌 허혈의 게르빌루스쥐 모델
  surviving CA1 neurons as % of control neuron number, side not stated: 15.8 %
뇌 허혈의 게르빌루스쥐 모델; n=5
  surviving CA1 neurons, side not stated: 19.2 ± 7.3 개
정상 두개안면 (교근) 초대 배양물
  desmin-positive cells as % of total (DAPI-positive) cells: 58.4±4.2 %
정상 하지 (사두근) 초대 배양물
  desmin-positive cells as % of total (DAPI-positive) cells: 47.1±3.5 %
[3]
  desmin-positive cells as % of total (DAPI-positive) cells: 13.2±1.7 %
ALS 사지
  desmin-positive cells as % of total (DAPI-positive) cells: 4.7±1.4 %
FSHD 사지
  desmin-positive cells as % of total (DAPI-positive) cells: 14.1±1.6 %
초대 인간 근육 세포 배양물
  effect on primary myoblast differentiation and myotube formation (CPK): 근관 형성을 명백하게 자극한다
C2C12 근육 세포 [1]
  induction of C2C12 cell proliferation (Alamar Blue fluorescence): 통계학적으로 상이하였다
HSMM 세포
  effect on HSMM proliferation (BrdU incorporation), used alone: 유의한 효과가 없었다

## PSTNKNTKSQARKGSTFEEHK [짧은 펩티드 3, Arg14→Ala, three N-terminal amino acids removed]
단핵성 근육모세포 (수반 세포)
  biological activity score (scale 0 to 3): 0

## TNKNTKSQARKGSTFEEHK [짧은 펩티드 4, Arg14→Ala, five N-terminal amino acids removed]
단핵성 근육모세포 (수반 세포)
  biological activity score (scale 0 to 3): 0

## YQPPATNKNTKSQRRKGSTFEEHK [펩티드 2]
단핵성 근육모세포 (수반 세포)
  biological activity score (scale 0 to 3): 1

## YQPPSTNKNTKAQRRKGSTFEEHK [펩티드 3]
단핵성 근육모세포 (수반 세포)
  biological activity score (scale 0 to 3): 3

## YQPPSTNKNTKSQAAKGSTFEEHK [펩티드 6]
단핵성 근육모세포 (수반 세포)
  biological activity score (scale 0 to 3): 0

## YQPPSTNKNTKSQARKGSTF [짧은 펩티드 2, Arg14→Ala, four C-terminal amino acids removed]
단핵성 근육모세포 (수반 세포)
  biological activity score (scale 0 to 3): 0

## YQPPSTNKNTKSQARKGSTFEE [짧은 펩티드 1, Arg14→Ala, two C-terminal amino acids removed]
단핵성 근육모세포 (수반 세포)
  biological activity score (scale 0 to 3): 1

## YQPPSTNKNTKSQARKGSTFEEHK [펩티드 5]
단핵성 근육모세포 (수반 세포)
  biological activity score (scale 0 to 3): 2

## YQPPSTNKNTKSQRRKGATFEEHK [펩티드 4]
단핵성 근육모세포 (수반 세포)
  biological activity score (scale 0 to 3): 2

## YQPPSTNKNTKSQRRKGSTFEEHK [펩티드 1, human Ec peptide variant with His instead of Arg at penultimate position; no PEG, no L-D conversion]
단핵성 근육모세포 (수반 세포)
  biological activity (in words): 활성을 거의 또는 전혀 나타내지 않았다
